Measured values published in patent US20070191393A1, “Macrocyclic anilinopyrimidines with substituted sulphoximine as selective inhibitors of cell cycle kinases” (priority 2006, published 2007).
pIC50: −log10 of the molar value.

Legend:
[1] = molecular target: T1, Tie-2 (Homo sapiens, UniProt Q02763); test: Tie-2 kinase assay; assay type: biochemical; details: 10 μM ATP, 20 min
T1 construct: made in house; host or cells: Hi5 insect cells
Procedure: Recombinant Tie-2 protein was expressed in Hi5 insect cells and then purified. The kinase substrate used was the biotinylated peptide having the amino acid sequence biotin-EPKDDAYPLYSDFG, which was purchased from Biosynthan. Tie-2 [concentration in the mixture 5 ng/μl] was preincubated in the presence of 100 μM ATP in assay buffer [50 mM HEPES pH 7.0, 0.5 mM MgCl2, 1.0 mM dithiothreitol, 0.01% NP40, 1 tablet/2.5 ml complete protease inhibitor (from Roche)] at 22° C. for 20 min. The enzyme reaction [0.5 ng/μl Tie-2 in the test mixture, test volume 5 μl] then took place in the presence of various concentrations of test substances (0 μM, and 10 measurement points within the range 0.001-20 μM in duplicate) in assay buffer with 10 μM ATP, 1.0 μM substrate peptide biotin-EPKDDAYPLYSDFG, 1.0% dimethyl sulphoxide for 20 min. The reaction was stopped by adding 5 μl of an EDTA/detection solution [50 mM HEPES pH 7.5, 89 mM EDTA, 0.28% BSA, 0.2 μM streptavidin-XLent (from CisBio), 2 nM PT66-Eu (from PerkinElmer)]. The fluorescence emission at 620 nm and 665 nm after excitation with light of the wavelength 350 nm was measured in a Rubystar HTRF instrument from BMG Labsystems.
The measured data (ratio of emission 665 divided by emission 620 multiplied by 10 000) were normalized to 0% inhibition (enzyme reaction without inhibitor) and 100% inhibition (all assay components apart from enzyme). The IC50 values were determined by means of a 4-parameter fit using the company's own software.

[2] = molecular target: T2, CDK2/CycE (Homo sapiens, UniProt P24941); test: CDK2/CycE kinase assay; assay type: biochemical; details: 0.5 μM ATP, 22° C., 10 min
T2 construct: GST; purchased ProQinase GmbH, Freiburg; host or cells: baculovirus-infected Sf9 insect cells
Procedure: Recombinant CDK2- and CycE-GST fusion proteins, purified from baculovirus-infected insect cells (Sf9), were purchased from ProQinase GmbH, Freiburg. The histone IIIS used as kinase substrate was purchased from Sigma. CDK2/CycE (50 ng/measurement point) was incubated in the presence of various concentrations of test substances (0 μM, and within the range 0.01-100 μM) in assay buffer [50 mM Tris/HCl pH 8.0, 10 mM MgCl2, 0.1 mM Na ortho-vanadate, 1.0 mM dithiothreitol, 0.5 μM ATP, 10 μg/measurement point histone IIIS, 0.2 μCi/measurement point ^33P-gamma ATP, 0.05% NP40, 1.25% dimethyl sulphoxide] at 22° C. for 10 min. The reaction was stopped by adding EDTA solution (250 mM, pH 8.0, 15 μl/measurement point).
15 μl of each reaction mixture were loaded onto P30 filter strips (from Wallac), and non-incorporated ^33P-ATP was removed by washing the filter strips three times in 0.5% strength phosphoric acid for 10 min each time.
After the filter strips had been dried at 70° C. for 1 hour, the filter strips were covered with scintillator strips (MeltiLex™ A, from Wallac) and baked at 90° C. for 1 hour. The amount of incorporated ^33P (substrate phosphorylation) was determined by scintillation measurement in a gamma radiation counter (Wallac).

T1 sequence (Q02763 23-1124, species assumed): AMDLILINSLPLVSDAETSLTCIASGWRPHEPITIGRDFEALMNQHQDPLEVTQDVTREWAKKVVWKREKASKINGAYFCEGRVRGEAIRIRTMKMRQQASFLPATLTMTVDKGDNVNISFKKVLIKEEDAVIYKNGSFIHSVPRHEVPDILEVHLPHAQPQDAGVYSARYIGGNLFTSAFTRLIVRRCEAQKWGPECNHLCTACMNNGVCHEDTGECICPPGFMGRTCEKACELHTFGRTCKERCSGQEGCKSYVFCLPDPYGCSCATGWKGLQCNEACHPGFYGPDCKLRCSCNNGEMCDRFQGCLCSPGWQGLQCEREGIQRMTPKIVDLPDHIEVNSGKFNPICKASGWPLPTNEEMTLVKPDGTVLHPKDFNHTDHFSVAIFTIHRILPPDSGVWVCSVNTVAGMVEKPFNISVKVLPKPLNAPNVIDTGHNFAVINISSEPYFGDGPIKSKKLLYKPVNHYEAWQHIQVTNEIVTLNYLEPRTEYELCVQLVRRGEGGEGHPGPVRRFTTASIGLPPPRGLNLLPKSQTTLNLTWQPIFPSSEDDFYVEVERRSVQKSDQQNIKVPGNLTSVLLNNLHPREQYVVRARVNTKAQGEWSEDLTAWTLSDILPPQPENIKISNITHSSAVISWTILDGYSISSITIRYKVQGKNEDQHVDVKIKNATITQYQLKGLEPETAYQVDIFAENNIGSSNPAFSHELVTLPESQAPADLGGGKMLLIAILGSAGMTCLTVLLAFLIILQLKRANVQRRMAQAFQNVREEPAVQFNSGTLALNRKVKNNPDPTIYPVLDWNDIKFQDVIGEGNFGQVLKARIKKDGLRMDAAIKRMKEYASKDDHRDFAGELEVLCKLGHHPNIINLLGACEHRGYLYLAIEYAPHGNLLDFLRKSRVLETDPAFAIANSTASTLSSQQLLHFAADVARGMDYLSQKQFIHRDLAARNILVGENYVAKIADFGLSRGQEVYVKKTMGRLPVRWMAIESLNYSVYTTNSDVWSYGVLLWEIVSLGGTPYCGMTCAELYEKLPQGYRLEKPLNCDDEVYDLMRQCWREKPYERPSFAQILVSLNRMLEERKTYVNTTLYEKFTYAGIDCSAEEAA

| pIC50 [1] | pIC50 [2] | Structure (SMILES) |
| --- | --- | --- |
| 5.53 | 6.49 | CCOC(=O)N=S(C)(=O)c1ccc2cc1NCCCCNc1nc(ncc1Br)N2 (racemic) [Example 1, (RS)—S-[1^5-Bromo-2,4,9-triaza-1(2,4)-pyrimidina-3(1,3)-benzenacyclononaphan-3^4-yl]-N-(ethoxycarbonyl)-S-methylsulphoximide] |
| – | 6.50 | CCOC(=O)N=S(C)(=O)c1ccc2cc1NCCCCNc1nc(ncc1I)N2 (racemic) [Example 4, (RS)—N-(Ethoxycarbonyl)-S-[1^5-iodo-2,4,9-triaza-1(2,4)-pyrimidina-3(1,3)-benzenacyclononaphan-3^4-yl]-S-methylsulphoximide] |
| – | < 6.00 | C[Si](C)(C)CCS(=O)(=O)N=S(C)(=O)c1ccc2cc1NCCCCNc1nc(ncc1Br)N2 (racemic) [Example 5, (RS)—S-[1^5-Bromo-2,4,9-triaza-1(2,4)-pyrimidina-3(1,3)-benzenacyclononaphan-3^4-yl]-S-methyl-N-[2-(trimethylsilyl)ethylsulphonyl]sulphoximide] |
| 5.85 | 7.15 | CCNC(=O)N=S(C)(=O)c1ccc2cc1NCCCCNc1nc(ncc1Br)N2 (racemic) [Example 6, (RS)—S-[1^5-Bromo-2,4,9-triaza-1(2,4)-pyrimidina-3(1,3)-benzenacyclononaphan-3^4-yl]-N-(ethylcarbamoyl)-S-methylsulphoximide] |
| 5.77 | < 6.00 | CCCS(=O)(=O)N=S(C)(=O)c1ccc2cc1NCCCCNc1nc(ncc1Br)N2 (racemic) [Example 7, (RS)—S-[1^5-Bromo-2,4,9-triaza-1(2,4)-pyrimidina-3(1,3)-benzenacyclononaphan-3^4-yl]-S-methyl-N-(propylsulphonyl)sulphoximide] |
| 4.77 | < 6.00 | CCCOC(=O)N=S(C)(=O)c1ccc2cc1OCCCCNc1nc(ncc1Br)N2 (racemic) [Example 8, (RS)—S-[1^5-Bromo-4-oxa-2,9-diaza-1(2,4)-pyrimidina-3(1,3)-benzenacyclononaphan-3^4-yl]-S-methyl-N-(propoxycarbonyl)sulphoximide] |
| < 5.00 | < 6.00 | C[Si](C)(C)CCS(=O)(=O)N=S(C)(=O)c1ccc2cc1OCCCCNc1nc(ncc1Br)N2 (racemic) [Example 9, (RS)—S-[1^5-Bromo-4-oxa-2,9-diaza-1(2,4)-pyrimidina-3(1,3)-benzenacyclononaphan-3^4-yl]-S-methyl-N-[2-(trimethylsilyl)ethylsulphonyl]sulphoximide] |
| – | 6.64 | CCOC(=O)N=S(C)(=O)c1ccc2cc1NCCCCNc1nc(ncc1Br)N2 (single isomer, unassigned) [Example 2] |
| – | 6.00 | CCOC(=O)N=S(C)(=O)c1ccc2cc1NCCCCNc1nc(ncc1Br)N2 (single isomer, unassigned) [Example 3] |
